Measurements taken from ChEMBL document CHEMBL1140430, “Novel indole-based peroxisome proliferator-activated receptor agonists: design, SAR, structural biology, and biological activities” (J Med Chem, 2005).
Calls of active or inactive are those of the source. No cut-off for these calls is given here.

Columns and labels:
[1] = target: T1, Peroxisome proliferator-activated receptor gamma (Homo sapiens, UniProt P37231); format: functional, cell-based, Huh-7
T1 sequence (P37231 whole entry): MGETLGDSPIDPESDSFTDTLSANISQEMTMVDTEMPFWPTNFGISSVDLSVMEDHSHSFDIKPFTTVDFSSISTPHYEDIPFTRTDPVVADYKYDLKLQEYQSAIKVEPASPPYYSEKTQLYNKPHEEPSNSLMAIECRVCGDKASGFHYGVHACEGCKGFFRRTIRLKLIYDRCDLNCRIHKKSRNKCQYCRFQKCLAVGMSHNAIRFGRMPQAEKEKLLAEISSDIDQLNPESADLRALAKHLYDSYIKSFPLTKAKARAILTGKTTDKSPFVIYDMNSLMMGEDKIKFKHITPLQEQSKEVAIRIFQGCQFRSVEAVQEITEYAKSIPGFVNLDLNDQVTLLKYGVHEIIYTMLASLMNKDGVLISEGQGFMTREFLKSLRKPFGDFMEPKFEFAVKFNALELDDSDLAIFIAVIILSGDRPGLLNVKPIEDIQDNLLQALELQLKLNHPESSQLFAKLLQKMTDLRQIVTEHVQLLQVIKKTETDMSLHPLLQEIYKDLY
Description: Functional activity at human PPAR gamma in Huh7 cells by transactivation assay

[2] = target: T1, Peroxisome proliferator-activated receptor gamma
Description: Displacement of [3H]rosiglitazone from human PPAR gamma by SPA assay

[3] = target: T2, Peroxisome proliferator-activated receptor delta (Homo sapiens, UniProt Q03181)
T2 sequence (Q03181 whole entry): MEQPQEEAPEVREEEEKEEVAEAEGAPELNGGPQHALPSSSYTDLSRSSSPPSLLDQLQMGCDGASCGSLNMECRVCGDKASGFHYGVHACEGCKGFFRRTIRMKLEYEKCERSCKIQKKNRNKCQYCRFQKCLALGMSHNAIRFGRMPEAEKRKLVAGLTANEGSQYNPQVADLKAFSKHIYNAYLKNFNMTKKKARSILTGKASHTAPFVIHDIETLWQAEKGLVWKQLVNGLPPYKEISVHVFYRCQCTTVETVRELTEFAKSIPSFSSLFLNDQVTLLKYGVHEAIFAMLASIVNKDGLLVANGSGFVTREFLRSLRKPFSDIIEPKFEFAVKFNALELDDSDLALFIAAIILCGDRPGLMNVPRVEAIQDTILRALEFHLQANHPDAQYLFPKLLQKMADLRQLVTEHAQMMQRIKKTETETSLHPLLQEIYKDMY
Description: Functional activity at human PPAR delta in Huh7 cells by transactivation assay

[4] = target: T3, Peroxisome proliferator-activated receptor alpha (Homo sapiens, UniProt Q07869); test: Functional activity at human PPAR alpha in Huh7 cells by transactivation assay; format: cell-based, Huh-7
T3 sequence (Q07869 whole entry): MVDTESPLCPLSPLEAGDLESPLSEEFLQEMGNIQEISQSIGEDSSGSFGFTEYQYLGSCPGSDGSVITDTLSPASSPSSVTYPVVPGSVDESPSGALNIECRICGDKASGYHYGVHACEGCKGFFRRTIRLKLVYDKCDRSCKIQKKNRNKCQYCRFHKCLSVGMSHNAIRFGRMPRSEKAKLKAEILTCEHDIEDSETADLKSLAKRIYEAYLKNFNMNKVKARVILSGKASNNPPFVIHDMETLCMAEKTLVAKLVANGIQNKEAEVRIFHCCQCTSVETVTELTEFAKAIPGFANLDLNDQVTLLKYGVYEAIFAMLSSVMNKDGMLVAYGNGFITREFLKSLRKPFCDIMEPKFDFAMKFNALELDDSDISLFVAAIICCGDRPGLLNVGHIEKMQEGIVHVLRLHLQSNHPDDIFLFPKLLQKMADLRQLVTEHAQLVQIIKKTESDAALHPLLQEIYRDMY

[5] = Volume of distribution in male BALB/c mice administered with 9.7 mg/kg, iv; format: ADME, organism-based; parameters: dose 9.7 mg/kg, route intravenous; conditions: mouse, in vivo, read-out: Vss
[6] = Clearance in male BALB/c mice administered with 9.7 mg/kg, iv; format: ADME, organism-based; parameters: dose 9.7 mg/kg, route intravenous; conditions: mouse, in vivo
[7] = Area under curve (0-24) in male BALB/c mice administered with 9.7 mg/kg, iv; format: ADME, organism-based; parameters: dose 9.7 mg/kg, route intravenous; conditions: mouse, in vivo
[8] = Area under curve (0-24) in male BALB/c mice administered with 35 mg/kg, po; format: ADME, organism-based; parameters: dose 35 mg/kg, route oral; conditions: mouse, in vivo
[9] = Maximum concentration in male BALB/c mice administered with 35 mg/kg, po; format: ADME, organism-based; parameters: dose 35 mg/kg, route oral; conditions: mouse, in vivo
[10] = Time taken to achieve maximum concentration in male BALB/c mice administered with 35 mg/kg, po; format: ADME, organism-based; parameters: dose 35 mg/kg, route oral; conditions: mouse, in vivo
[11] = Oral bioavailability in male BALB/c mice administered with 35 mg/kg, po; format: ADME, organism-based; conditions: mouse, in vivo
[12] = Half life in male BALB/c mice administered with 9.7 mg/kg, iv; format: ADME, organism-based; parameters: dose 9.7 mg/kg, route intravenous; conditions: mouse, in vivo
[13] = Half life in male BALB/c mice administered with 35 mg/kg, po; format: ADME, organism-based; parameters: dose 35 mg/kg, route oral; conditions: mouse, in vivo
Mus musculus [14] = test: Effect on reduction of plasma glucose in orally dosed KKAy/TaJcl mice at 10 mg/kg in a 10 day study; format: functional, organism-based; parameters: dose 10 mg/kg
Mus musculus [15] = test: Effect on reduction of plasma glucose in orally dosed KKAy/TaJcl mice at 30 mg/kg in a 10 day study; format: functional, organism-based; parameters: dose 30 mg/kg

| SMILES | EC50 [1] [µM] | IC50 [2] [µM] | EC50 [3] [µM] | EC50 [4] [µM] | other results |
| --- | --- | --- | --- | --- | --- |
| CCCc1c(OCCC(C)CCOc2cccc3c2ccn3CC(=O)O)ccc2c(C(F)(F)F)noc12 (stereo not drawn) | > 10 | 1.45 |  |  |  |
| CCCc1c(OCCCOc2cccc3c2ccn3CC(=O)O)ccc2cc[nH]c12 | 1.81 | 4.81 | 0.42 | 1.21 |  |
| CCCc1c(OCCCCOc2ccc3c(ccn3CC(=O)O)c2)ccc2c(C(F)(F)F)noc12 | 0.28 | 0.105 | 0.243 | 1.04 |  |
| CCCc1c(OCCCCCOc2cccc3c2ccn3CC(=O)O)ccc2c(C(F)(F)F)noc12 | > 10 | 1.78 |  |  |  |
| CCCc1c(OCCCOc2ccc3ccn(CC(=O)O)c3c2)ccc2c(C(F)(F)F)noc12 | 1.35 | 1.05 | 0.08 | 1.82 |  |
| CCCc1c(OCCCOc2ccc3c(ccn3CC(=O)[O-])c2)ccc2c(C(F)(F)F)noc12.[Na+] |  |  |  |  | Vd [5]: 0.4 L/kg; clearance [6]: 0.9 mL/min/kg; AUC [7]: 181 µg·h/mL; AUC [8]: 652 µg·h/mL; Cmax [9]: 59 µg/mL; Tmax [10]: 4.7 h; bioavailability [11]: 100%; half-life [12]: 6.9 h; half-life [13]: 7.8 h |
| CCCc1c(OCCCOc2ccc3c(ccn3CC(=O)O)c2)ccc2c(C(F)(F)F)noc12 [listing 1 of 2 here] |  |  |  | 0.014 |  |
| CCCc1c(OCCCOc2ccc3c(ccn3CCC(=O)O)c2)ccc2c(C(F)(F)F)noc12 | 1.2 | 0.584 |  |  |  |
| CCCc1c(OCCC(C)CCOc2ccc3c(ccn3CC(=O)O)c2)ccc2c(C(F)(F)F)noc12 (stereo not drawn) | > 10 | 1.37 |  |  |  |
| CCCc1c(OCCCOc2cccc3c2ccn3CC(=O)O)ccc2c(C(F)(F)F)noc12 | 2.39 | 1.99 | 0.61 | 0.186 |  |
| CCCc1c(OCCCOc2cccc3c2ccn3CC(=O)O)ccc2cc(-c3ccccc3)oc12 | > 10 | 1.95 | 7.74 | > 10 |  |
| CCCc1c(OCCCCCOc2ccc3c(ccn3CC(=O)O)c2)ccc2c(C(F)(F)F)noc12 | 1.49 | 1.05 |  |  |  |
| CCCc1c(OCCCOc2cccc3c2ccn3CC(=O)O)ccc2c(-c3ccccc3)coc12 | 4.15 | 3.97 | 2.13 | 0.169 |  |
| CCCc1c(OCCCOc2cccc3c2ccn3CCC(=O)O)ccc2c(C(F)(F)F)noc12 | 2.19 | 1.1 |  |  |  |
| CCCc1c(OCCCOc2ccc3c(ccn3CC(=O)O)c2)ccc2c(C(=O)C(F)(F)F)c[nH]c12 | > 10 | 2.41 | 9.17 | 2.2 |  |
| CCCc1c(OCCCCOc2cccc3c2ccn3CC(=O)O)ccc2c(C(F)(F)F)noc12 | 1.98 | 0.774 | > 10 | > 10 |  |
| CCCc1c(OCCCOc2ccc3c(ccn3C(CC)C(=O)O)c2)ccc2c(C(F)(F)F)noc12 (stereo not drawn) | 5.9 | 1.71 |  |  |  |
| CCCc1c(OCCCOc2ccc3c(ccn3CC(=O)O)c2)ccc2c(-c3ccccc3)noc12 | 0.29 | 0.12 | 0.08 | 0.018 |  |
| CCCc1c(OCCOc2ccc3c(ccn3CC(=O)O)c2)ccc2c(C(F)(F)F)noc12 | 0.69 | 0.422 | 0.125 | 0.311 |  |
| CCCc1c(OCCOc2cccc3c2ccn3CC(=O)O)ccc2c(C(F)(F)F)noc12 | > 10 | 1.49 |  |  |  |
| CCCc1c(OCCCOc2ccc3c(ccn3CC(=O)O)c2)ccc2c(C(F)(F)F)noc12 [listing 2 of 2 here] |  |  |  |  | Activity (Mus musculus [14]): Active; Activity (Mus musculus [15]): Active |
| CCCc1c(OCCCOc2cccc3c2ccn3CC(=O)O)ccc2cc(-c3ccccc3)[nH]c12 | 2.82 | 1.68 | 3.34 | 0.5 |  |
| CCCc1c(OCCCOc2ccc3c(ccn3CC(=O)O)c2)ccc2c(C#N)c[nH]c12 | 9.17 | 0.759 | 2.62 | 5.21 |  |
| CCCc1c(OCCCOc2cccc3c2ccn3C(CC)C(=O)O)ccc2c(C(F)(F)F)noc12 (stereo not drawn) | > 10 | 1.28 |  |  |  |
| CCCc1c(OCC(C)COc2cccc3c2ccn3CC(=O)O)ccc2c(C(F)(F)F)noc12 (stereo not drawn) | 3.03 | 1.3 |  |  |  |
| CCCc1c(OCCCOc2cccc3c2ccn3CC(=O)O)ccc2c(-c3ccccc3)noc12 | 0.43 | 0.127 | 0.32 | 0.002 |  |
| CCCc1c(OCCCOc2ccc3c(ccn3Cc3nn[nH]n3)c2)ccc2c(C(F)(F)F)noc12 | 0.898 | 1.12 | 0.37 | 0.474 |  |
